Measured values reported in patent publication US8268751B2, “Combination of active substances with insecticidal properties” (Bayer Cropscience AG, priority 2003, dated 2012).

Tests used:
Assay type in all cases: in vivo
[1] = system: Plutella xylostella, resistant strain; test: Plutella-xylostella test (resistant strain), cabbage leaf dip
Text: (§1) The expected action for a given combination of two active compounds can be calculated as follows, according to S. R. Colby, Weeds 15 (1967), 20-22:
(§2) If • X is the kill rate, expressed as a percentage of the untreated control, when employing active compound A at an application rate of m g/ha or in a concentration of m ppm, • Y is the kill rate, expressed as a percentage of the untreated control, when employing active compound B at an application rate of n g/ha or in a concentration of n ppm and • E is the kill rate, expressed as a percentage of the untreated control, when employing active compounds A and B at application rates of m and n g/ha or in a concentration of m and n ppm, then
(§3) If the actual insecticidal kill rate exceeds the calculated value, the action of the combination is superadditive, i.e. a synergistic effect is present. In this case, the actually observed kill rate must exceed the value calculated using the above formula for the expected kill rate (E).
Plutella-xylostella Test (Resistant Strain)
(§4) To produce a suitable preparation of active compound, 1 part by weight of active compound is mixed with the stated amounts of solvent and emulsifier, and the concentrate is diluted with emulsifier-containing water to the desired concentration.
Cabbage leaves (Brassica oleracea) are treated by being dipped into the preparation of active compound of the desired concentration and are populated with caterpillars of the diamond back moth (Plutella xylostella, resistant strain), while the leaves are still moist.
After the desired period of time, the kill in % is determined. 100% means that all caterpillars have been killed; 0% means that none of the caterpillars have been killed. The kill rates determined are calculated using Colby's formula (see page 39).

[2] = system: Spodoptera frugiperda; test: Spodoptera frugiperda test (cabbage leaf dip); details: Table D, 0.032 ppm
Text: as §1, §2, §3
Spodoptera frugiperda Test […]
After the desired period of time, the kill in % is determined: 100% means that all caterpillars have been killed; 0% means that none of the caterpillars have been killed. The kill rates determined are calculated using Colby's formula (see page 39).

[3] = system: Phaedon cochleariae larvae; test: Phaedon cochleariae larvae test (cabbage leaf dip); details: Table B, 0.16 ppm
Text: as §1, §2, §3
Phaedon cochleariae Larvae Test
To produce a suitable preparation of active compound, 1 part by weight of active compound is mixed with the stated amounts of solvent and emulsifier, and the concentrate is diluted with emulsifier-containing water to the desired concentration. […]
After the desired period of time, the kill in % is determined. […] The kill rates determined are calculated using Colby's formula (see page 39).

[4] = system: Myzus persicae; test: Myzus persicae test (cabbage leaf dip)
Text: as §1, §2, §3, §4
Cabbage leaves (Brassica oleracea) which are heavily infested by the green peach aphid (Myzus persicae) are treated by being dipped into the preparation of active compound of the desired concentration.
After the desired period of time, the kill in % is determined. 100% means that all aphids have been killed; 0% means that none of the aphids have been killed. The kill rates determined are calculated using Colby's formula (see page 39).

Row | SMILES | Kill rate in % after 6 d, found ([1]; Table C1, 0.0064 ppm) | Kill rate in % after 6 d, found [2] | Kill rate in % after 3 d, found [3] | Kill rate in % after 6 d, found ([1]; Table C2, 0.0064 ppm) | Kill rate in % after 6 d, found ([4]; Table A2, 0.032 ppm) | Kill rate in % after 6 d, found ([4]; Table A1, 0.16 ppm) | Kill rate in % after 6 d, found ([4]; Table A1, 4 ppm) | Kill rate in % after 6 d, found ([4]; Table A2, 0.8 ppm)
1 | CC1(C)C(C=C(Cl)Cl)C1C(=O)OC(C#N)c1ccc(F)c(Oc2ccccc2)c1 (stereo not drawn) [(2-3) betacyfluthrin, betacyfluthrin] | 0% | 0% | 15% |  |  |  |  | 
2 | CC1(C)C(/C=C(\Cl)C(F)(F)F)C1C(=O)OC(C#N)c1cccc(Oc2ccccc2)c1 (stereo not drawn) [(2-12) lambda-cyhalothrin, lambda-cyhalothrin] |  |  |  | 0% | 0% |  |  | 
3 | CC1(C)C(C=C(Br)Br)C1C(=O)OC(C#N)c1cccc(Oc2ccccc2)c1 (stereo not drawn) [(2-6) deltamethrin, deltamethrin] |  |  |  |  |  | 50% |  | 
4 | Cc1cc(Cl)cc(C(=O)NC(C)C)c1NC(=O)c1cc(C(F)(F)F)nn1-c1ncccc1Cl [Example I-1-9] | 0% | 75% | 0% | 10% |  |  | 15% | 0%
